Experiments:
Details in all cases: exposure: 6-8 hpf to 5 dpf, scored at 6 dpf
[1] = system: Danio rerio embryo/larva; assay: max % larvae with craniofacial defects across tested concentrations; higher = more toxic; extreme values may be limits of the assay
[2] = system: Danio rerio embryo/larva; assay: max % larvae with pigmentation defects across tested concentrations; higher = more toxic
[3] = system: Danio rerio embryo/larva; assay: max % larvae with tail defects across tested concentrations; higher = more toxic; extreme values may be limits of the assay
[4] = system: Danio rerio embryo/larva; assay: max % larvae generally abnormal across tested concentrations; higher = more toxic; extreme values may be limits of the assay
[5] = system: Danio rerio embryo/larva; assay: max % larvae with abnormal position across tested concentrations; higher = more toxic; extreme values may be limits of the assay
[6] = system: Danio rerio embryo/larva; assay: max % larvae with spinal defects across tested concentrations; higher = more toxic; extreme values may be limits of the assay
[7] = system: Danio rerio embryo/larva; assay: max % larvae with blood pooling across tested concentrations; higher = more toxic; extreme values may be limits of the assay
[8] = system: Danio rerio embryo/larva; assay: max % larvae with uninflated swim bladder across tested concentrations; higher = more toxic; extreme values may be limits of the assay
[9] = system: Danio rerio embryo/larva; assay: max % larvae with edema across tested concentrations; higher = more toxic; extreme values may be limits of the assay

| Compound | max % larvae [1] [%] | max % larvae [2] [%] | max % larvae [3] [%] | max % larvae generally abnormal across tested concentrations [4] [%] | max % larvae [5] [%] | max % larvae [6] [%] | max % larvae [7] [%] | max % larvae [8] [%] | max % larvae [9] [%] |
| --- | --- | --- | --- | --- | --- | --- | --- | --- | --- |
| O=C(O)C(F)(F)C(F)(F)C(F)(F)OC(F)(C(F)(F)F)C(F)(F)F [Perfluoro-4-isopropoxybutanoic acid] (max tested concentration (log10 uM): 2) | 0 | 0 | 0 | 0 | 0 | 0 | 0 | 0 | 0 |
| OCC(F)(F)C(F)(F)C(F)(F)C(F)(F)C(F)(F)C(F)(F)C(F)(F)C(F)(F)C(F)(F)C(F)(F)C(F)(F)F [11:1 Fluorotelomer alcohol] (max tested concentration (log10 uM): 1.30103) | 0 | 0 | 0 | 0 | 0 | 0 | 0 | 0 | 0 |
| C=CC(=O)OCC(F)(F)C(F)(F)C(F)(F)COC(=O)C=C [1H,1H,5H,5H-Perfluoro-1,5-pentanediol diacrylate] (max tested concentration (log10 uM): 1) | 33.3 | 0 | 25 | 33.3 | 0 | 8.33 | 0 | 16.7 | 33.3 |
| C=C(C)C(=O)OCCC(F)(F)C(F)(F)C(F)(F)C(F)(F)C(F)(F)C(F)(F)C(F)(F)C(F)(F)F [2-(Perfluorooctyl)ethyl methacrylate] (max tested concentration (log10 uM): 2) | 0 | 0 | 0 | 0 | 0 | 0 | 0 | 0 | 0 |
| NC(=O)C(F)(F)C(F)(F)C(F)(F)C(F)(F)F [Nonafluoropentanamide] (max tested concentration (log10 uM): 2) | 0 | 0 | 0 | 0 | 0 | 0 | 0 | 0 | 0 |
| CN(C(=O)C(F)(F)C(F)(F)C(F)(F)F)[Si](C)(C)C [N-Methyl-N-trimethylsilylheptafluorobutyramide] (max tested concentration (log10 uM): 2) | 0 | 0 | 0 | 0 | 0 | 0 | 0 | 0 | 0 |
| O=C(O)C(F)(F)C(F)(F)C(F)(F)C(F)(F)C(=O)O [Perfluorohexanedioic acid] (max tested concentration (log10 uM): 2) | 0 | 0 | 0 | 0 | 0 | 0 | 0 | 0 | 0 |
| O=C(CC(=O)C(F)(F)C(F)(F)C(F)(F)F)c1cccs1 [(Perfluorobutyryl)-2-thenoylmethane] (max tested concentration (log10 uM): 0.477121) | 8.33 | 0 | 0 | 8.33 | 0 | 0 | 0 | 16.7 | 8.33 |
| OCC(F)(F)C(F)(F)C(F)(F)C(F)(F)C(F)(F)C(F)F [1H,1H,7H-Dodecafluoro-1-heptanol] (max tested concentration (log10 uM): 2) | 0 | 0 | 0 | 8.33 | 0 | 0 | 0 | 0 | 8.33 |
| O=P(O)(O)OCCC(F)(F)C(F)(F)C(F)(F)C(F)(F)C(F)(F)C(F)(F)F [6:2 Fluorotelomer phosphate monoester] (max tested concentration (log10 uM): 2) | 0 | 0 | 0 | 0 | 0 | 0 | 0 | 0 | 0 |
| CCN(CCO)S(=O)(=O)C(F)(F)C(F)(F)C(F)(F)C(F)(F)C(F)(F)C(F)(F)C(F)(F)C(F)(F)F [N-Ethyl-N-(2-hydroxyethyl)perfluorooctane sulfonamide] (max tested concentration (log10 uM): 2) | 0 | 0 | 0 | 8.33 | 0 | 0 | 0 | 8.33 | 8.33 |
| O=C(CC(=O)C(F)(F)F)C(F)(F)F [1,1,1,5,5,5-Hexafluoro-2,4-pentanedione] (max tested concentration (log10 uM): 2) | 0 | 0 | 0 | 0 | 0 | 0 | 0 | 0 | 0 |
| FC(F)(F)C(F)(F)C(F)(F)C(F)(F)C(F)(F)C(F)(F)I [Perfluoro-1-iodohexane] (max tested concentration (log10 uM): 2) | 0 | 0 | 0 | 0 | 0 | 0 | 0 | 0 | 0 |
| O=C(Cl)C(F)(F)C(F)(F)C(F)(F)C(F)(F)C(F)(F)C(F)(F)C(F)(F)F [Pentadecafluorooctanoyl chloride] (max tested concentration (log10 uM): 2) | 16.7 | 0 | 12.5 | 16.7 | 12.5 | 12.5 | 16.7 | 16.7 | 16.7 |
| O=C(O)C(F)(F)OC(F)(F)C(F)(F)OC(F)(F)C(=O)O [Perfluoro-3,6-dioxaoctane-1,8-dioic acid] (max tested concentration (log10 uM): 2) | 0 | 0 | 0 | 0 | 0 | 0 | 0 | 0 | 0 |
| O=C(O)C(F)(F)C(F)(F)C(F)(F)C(F)(F)C(F)(F)C(F)(F)C(F)(F)C(F)(F)C(F)(F)C(F)(F)C(F)(F)C(F)(F)C(F)(F)F [Perfluorotetradecanoic acid] (max tested concentration (log10 uM): 1.30103) | 0 | 0 | 0 | 2.27 | 0 | 0 | 0 | 4.55 | 0 |

— the supplement of paper PMC11281043
